The record followed here is publication PMC9138959 (Biomedicines, 2022).

Molecules are shown by their SMILES. “And” between values parts separate entries of the source, which are not always exact repeats. Equal entries are not always repeated. “Also recorded” adds a separate entry of the source.

The test system of one data set is SARS-CoV-2. In words: microbe, parasite or virus in culture. It counts as cell-based. The following applies: Severe acute respiratory syndrome coronavirus 2, Vero, 24 h; read-out: IC50, inhibition of SARS-CoV-2 infection.
For a further data set, the target named is SARS-CoV-2 Mpro (Severe acute respiratory syndrome coronavirus 2, UniProt P0DTD1). In words: SARS-CoV-2 Mpro activity inhibition assay (FRET peptide). The following applies: MBP-tagged Mpro, FRET peptide substrate, 30 min. It counts as biochemical.
The next data set has as its target SARS-CoV-2 PLpro (Severe acute respiratory syndrome coronavirus 2, UniProt P0DTD1). Nature of the data set: SARS-CoV-2 PLpro activity inhibition assay. It counts as biochemical. The settings on record: 25 μM compound. The method, then:
The fluorescence intensity was measured at 360 nm/460 nm using a Synergy H1 microplate reader (Bio-Tek). GRL061 (BPS Bioscience) was used as a positive control.
To elucidate the mode of action of PGG and PAC, the effect of those compounds on the activity of the viral protease, Mpro, was examined using SARS-CoV-2 Mpro activity assay kits.

For another data set, the target named is T1, SARS-CoV-2 RdRp (Severe acute respiratory syndrome coronavirus 2, UniProt P0DTD1).
T1 construct: the RdRp expression plasmid, pCI-SARS-CoV-2 nsp12-N; expressed in transfected cells; host or cells: HEK293T
In words: cell-based. The settings on record: HEK293T cells, 18 h treatment; read-out: IC50, SARS-CoV-2 RdRp activity (NLuc/FLuc).

For another data set, the system named is SARS-CoV. Nature of the data set: microbe, parasite or virus in culture. The settings on record: Severe acute respiratory syndrome coronavirus, Vero, 24 h, read-out: IC50, inhibition of SARS-CoV infection. It counts as cell-based.
The test system of another data set is MERS-CoV. Nature of the data set: microbe, parasite or virus in culture. It counts as cell-based. The following applies: Middle East respiratory syndrome-related coronavirus, Vero, 24 h, read-out: IC50, inhibition of MERS-CoV infection.
The next data set can be described thus: in vitro. The settings on record: African green monkey.

For `Oc1cc(O)c2c(c1)OC(c1ccc(O)c(O)c1)C(OC1(c3ccc(O)c(O)c3)Oc3cc(O)cc(O)c3C(O)C1O)C2` (centres unmarked) [PAC, proanthocyanidin], the IC50 in the data set with SARS-CoV-2 is 25.9 ± 0.81 µM; against SARS-CoV-2 Mpro it was 25 to 26 µM and 26 µM; on SARS-CoV-2 RdRp it was 21 ± 1.2 µM; in the data set on SARS-CoV it was 15.2 ± 0.28 µM; in the data set with MERS-CoV it was 4.95 ± 0.181 µM. Further, at SARS-CoV-2 PLpro, the “Inhibition of SARS-CoV-2 PLpro activity” value is on record as “did not inhibit; also recorded: did not affect”. Moreover, the “Cytotoxicity or inhibition of host transcription (FLuc internal control levels)” value with HEK293T cells was “without cytotoxicity or the inhibition of host transcription”. For the same compound, in the data set “in vitro”, the CC50 was over 50 µM.

As to `O=C(OC[C@H]1O[C@@H](OC(=O)c2cc(O)c(O)c(O)c2)[C@H](OC(=O)c2cc(O)c(O)c(O)c2)[C@@H](OC(=O)c2cc(O)c(O)c(O)c2)[C@@H]1OC(=O)c1cc(O)c(O)c(O)c1)c1cc(O)c(O)c(O)c1` [PGG, 1,2,3,4,6-penta-O-galloyl-beta-D-glucose], the IC50 came out at 15 ± 0.75 µM in the data set on SARS-CoV-2, 15.7 ± 1.02 µM with SARS-CoV and 3.47 ± 0.231 µM with MERS-CoV. Besides, at SARS-CoV-2 PLpro, the “Inhibition of SARS-CoV-2 PLpro activity” value is “did not inhibit; also recorded: did not affect”. Also, in the data set with HEK293T cells, the “Cytotoxicity or inhibition of host transcription (FLuc internal control levels)” value is reported as “without cytotoxicity or the inhibition of host transcription”. In the data set “in vitro”, this compound gave a CC50 of over 50 µM.
